Data taken from US20230414735A1, “NEOANTIGENS AND METHODS OF THEIR USE” (priority 2016, published 2023).
Where no end group is shown, it is not given here.

Tested on: HLA Class I molecules
Experiment: HLA class I binding stability assay (pMHC-I complex dissociation, 125I-labeled β2m, scintillation counts)
Set-up: species or system human
Settings: allele A02.01; 37° C.

Stability (T1/2 (h))	Compound
5 h	CC[C@H](C)[C@H](NC(=O)[C@H](CO)NC(=O)[C@H](Cc1c[nH]c2ccccc12)NC(=O)[C@H](Cc1c[nH]cn1)NC(=O)[C@H](C)NC(=O)[C@@H]1CCCN1C(=O)[C@H](CCSC)NC(=O)[C@H](CC(C)C)NC(=O)[C@@H](N)CO)C(=O)O
0.3 h	CC[C@H](C)[C@H](NC(=O)[C@@H](NC(=O)[C@H](CC(C)C)NC(=O)[C@@H](NC(=O)[C@@H]1CCCN1C(=O)[C@H](CCCNC(=N)N)NC(=O)[C@H](CCCNC(=N)N)NC(=O)[C@H](CC(N)=O)NC(=O)[C@H](CCSC)NC(=O)[C@@H](N)CO)[C@@H](C)CC)[C@@H](C)O)C(=O)O
0.4 h	CC[C@H](C)[C@H](NC(=O)[C@H](CO)NC(=O)[C@H](Cc1c[nH]c2ccccc12)NC(=O)[C@H](Cc1c[nH]cn1)NC(=O)[C@H](C)NC(=O)[C@@H]1CCCN1C(=O)[C@H](CCSC)NC(=O)[C@H](CC(C)C)NC(=O)[C@H](CO)NC(=O)[C@@H](N)CC(C)C)C(=O)O
1.2 h	IIIEYCFYG
18.7 h	CC(C)C[C@H](NC(=O)[C@@H](N)CCCNC(=N)N)C(=O)N[C@@H](CO)C(=O)N[C@@H](CO)C(=O)N[C@@H](CS)C(=O)N[C@H](C(=O)N1CCC[C@H]1C(=O)N[C@H](C(=O)N[C@@H](C)C(=O)O)C(C)C)C(C)C
1 h	CC[C@H](C)[C@H](NC(=O)[C@@H]1CCCN1C(=O)[C@H](CC(C)C)NC(=O)[C@H](Cc1ccccc1)NC(=O)[C@H](CC(C)C)NC(=O)[C@H](CO)NC(=O)[C@H](CC(=O)O)NC(=O)[C@@H](NC(=O)[C@H](CC(C)C)NC(=O)[C@@H](N)CCSC)[C@@H](C)O)C(=O)O
9.5 h	CC(C)C[C@H](NC(=O)[C@@H](N)Cc1ccccc1)C(=O)N[C@@H](CCC(N)=O)C(=O)N[C@@H](CCC(=O)O)C(=O)N[C@@H](CCC(N)=O)C(=O)N[C@@H](Cc1ccc(O)cc1)C(=O)N[C@@H](Cc1c[nH]cn1)C(=O)N[C@@H](CCC(=O)O)C(=O)N[C@@H](C)C(=O)O
0.4 h	CC[C@H](C)[C@H](NC(=O)[C@@H]1CCCN1C(=O)[C@H](CCCNC(=N)N)NC(=O)[C@H](Cc1c[nH]c2ccccc12)NC(=O)[C@H](CC(N)=O)NC(=O)[C@H](CCSC)NC(=O)CNC(=O)CNC(=O)[C@H](CCSC)NC(=O)[C@@H](N)CS)C(=O)O
0.3 h	CSCC[C@H](NC(=O)[C@H](CC(C)C)NC(=O)[C@H](CO)NC(=O)[C@H](CC(C)C)NC(=O)[C@@H]1CCCN1C(=O)[C@H](CCC(N)=O)NC(=O)[C@H](CCSC)NC(=O)[C@H](CCC(N)=O)NC(=O)[C@@H](N)Cc1ccccc1)C(=O)O
4 h	CC(C)C[C@H](NC(=O)[C@H](CO)NC(=O)[C@H](CS)NC(=O)[C@H](CCC(=O)O)NC(=O)[C@H](Cc1c[nH]c2ccccc12)NC(=O)[C@H](CC(C)C)NC(=O)[C@H](C)NC(=O)[C@H](CC(C)C)NC(=O)[C@@H](N)CC(C)C)C(=O)O
0.5 h	CC[C@H](C)[C@H](NC(=O)[C@@H](NC(=O)[C@H](CC(C)C)NC(=O)[C@@H](NC(=O)[C@@H]1CCCN1C(=O)[C@H](CCCNC(=N)N)NC(=O)[C@H](Cc1c[nH]c2ccccc12)NC(=O)[C@H](CC(N)=O)NC(=O)[C@H](CCSC)NC(=O)CN)[C@@H](C)CC)[C@@H](C)O)C(=O)O

Same assay, conditions: allele A02.01; pMHC-I dissociation at 37° C.

Stability (T1/2 (h))	Compound
0.5 h	CC[C@H](C)[C@H](N)C(=O)N[C@@H](CCSC)C(=O)N[C@@H](CCC(N)=O)C(=O)N[C@@H](CC(C)C)C(=O)N[C@@H](CCSC)C(=O)N1CCC[C@H]1C(=O)N[C@@H](Cc1ccccc1)C(=O)NCC(=O)N[C@@H](CS)C(=O)N[C@@H](CC(C)C)C(=O)O
3 h	CSCC[C@H](NC(=O)[C@H](CCC(=O)O)NC(=O)[C@H](CCCNC(=N)N)NC(=O)[C@H](CC(C)C)NC(=O)[C@H](Cc1ccc(O)cc1)NC(=O)[C@H](CC(N)=O)NC(=O)[C@H](CC(C)C)NC(=O)[C@H](CC(C)C)NC(=O)[C@@H](N)CO)C(=O)O
9.4 h	CC(C)[C@H](NC(=O)[C@H](CO)NC(=O)[C@H](Cc1ccccc1)NC(=O)[C@H](Cc1ccccc1)NC(=O)[C@H](Cc1ccccc1)NC(=O)[C@H](Cc1ccccc1)NC(=O)[C@H](CS)NC(=O)[C@@H](NC(=O)[C@@H](N)CO)C(C)C)C(=O)O
0.3 h	CC[C@H](C)[C@H](NC(=O)[C@H](CC(C)C)NC(=O)[C@@H](N)CCC(N)=O)C(=O)N[C@@H](CCSC)C(=O)N[C@@H](CCC(N)=O)C(=O)N[C@@H](CC(C)C)C(=O)N[C@@H](CCSC)C(=O)N1CCC[C@H]1C(=O)N[C@@H](Cc1ccccc1)C(=O)O
0.6 h	CC(C)C[C@H](NC(=O)[C@H](Cc1c[nH]cn1)NC(=O)[C@H](CCC(=O)O)NC(=O)[C@H](Cc1ccccc1)NC(=O)[C@H](CCCCN)NC(=O)[C@H](CC(=O)O)NC(=O)[C@H](CCC(N)=O)NC(=O)[C@H](CC(C)C)NC(=O)[C@@H](N)CCC(N)=O)C(=O)O

Same assay, conditions: allele A03.01; 37° C.

Stability (T1/2 (h))	Compound
13.5 h	KVSRENTSPK

Same assay, conditions: allele B07.02; 37° C.

Stability (T1/2 (h))	Compound
5.5 h	CC(C)C[C@H](N)C(=O)N1CCC[C@H]1C(=O)N[C@@H](CCCNC(=N)N)C(=O)N[C@@H](CCCCN)C(=O)N1CCC[C@H]1C(=O)N[C@H](C(=O)N[C@@H](CCCNC(=N)N)C(=O)N[C@@H](C)C(=O)N[C@@H](C)C(=O)O)[C@@H](C)O
3.7 h	LPRKPTRAAT

Molecular target: HLA class I molecule
Experiment: HLA class I peptide binding affinity assay (inhibition of 125I-radiolabeled probe peptide binding to purified HLA)
Set-up: species or system human
Settings: Allele A11.01; read-out: Observed Affinity (IC50; (nM))
Protocol: Epstein-Barr virus (EBV)-transformed homozygous cell lines, fibroblasts, CIR, or 721.22 transfectants are used as sources of HLA class I molecules. […] HLA molecules are purified from lysates by affinity chromatography. The lysates are passed over a column of Sepharose CL-4B beads coupled to an appropriate antibody. […] A 1/25 volume of 2.0 M Tris, pH 6.8, is added to the eluate to reduce the pH to […]. Eluates are then concentrated by centrifugation in Centriprep 30 concentrators (Amicon, Beverly, MA). Protein content is evaluated by a BCA protein assay (Pierce Chemical Co., Rockford, IL) and confirmed by SDS-PAGE.
Following incubation, MHC-peptide complexes are separated from free peptide by gel filtration on 7.8 mm×15 cm TSK200 columns (TosoHaas 16215, Montgomeryville, PA). Because the large size of the radiolabeled peptide used for the DRB1*1501 (DR2w2(31) assay makes separation of bound from unbound peaks more difficult under these conditions, all DRB1*1501 (DR2w2(31) assays were performed using a 7.8 mm×30 cm TSK2000 column eluted at 0.6 mLs/min. The eluate from the TSK columns is passed through a Beckman 170 radioisotope detector, and radioactivity is plotted and integrated using a Hewlett-Packard 3396A integrator, and the fraction of peptide bound is determined.
Radiolabeled peptides are iodinated using the chloramine-T method. […] All subsequent inhibition and direct binding assays are performed using these HLA concentrations.
Since under these conditions [label]<[HLA] and IC50≥[HLA], the measured IC50 values are reasonable approximations of the true KD values. […] For database purposes, and inter-experiment comparisons, relative binding values are compiled. These values can subsequently be converted back into IC50 nM values by dividing the IC50 nM of the positive controls for inhibition by the relative binding of the peptide of interest.
HLA binding assays were used to evaluate either the affinity of interaction of a given epitope with a selected HLA molecule or the stability.
The measurements are plotted against the predicted affinity in FIG. 1.

IC50	Compound
129 nM	SLKKVPALK
9.8 nM	KISNWSLKK
15.8 nM	SAMTTSSSQK

Same assay, conditions: allele A01.01; read-out: Observed Affinity (IC50; (nM))

Compound	IC50
VMSDTTYKIY	376 nM
LSFLSSWDY	52.9 nM
YMANGSLLNY	13.2 nM
ILDTAGREEY	7 nM
MSDTTYKIY	10.2 nM
TGSNEVTTRY	15500 nM

Same assay, conditions: allele A02.01; read-out: Observed Affinity (IC50; (nM))

IC50	Compound
10900 nM	LIVSRTLLLV
54.2 nM	RLSSCVPVAL [RLSSCVPVAL]
3510 nM	LIMQLMPFG
12000 nM	PLNDLLLEML
10.6 nM	MLTGPPARV
1370 nM	NVVPLCDLLL
42.9 nM	YLTKWPKFFL
61.2 nM	FFFETKSCSV
1.3 nM	RLWHLLLQV
29.9 nM	SLVRLSSCV
0.6 nM	KLFSCLSFLS
663 nM	FKLFSCLSFL
4440 nM	YMANGSLLN
718 nM	LQVTQTSFAL [LQVTQTSFAL]
19.5 nM	ILIRKAMTV
1710 nM	MSVCFFFFSV
1400 nM	KITEQEKDFL
10700 nM	TIGGPTLVII
12.7 nM	IVSRTLLLV
50.9 nM	RLWHLLLQVT
9760 nM	QTGVMICAYL

Compound	IC50
TLQRSSLWCL	118 nM
HMNIANLLGA	430 nM
TQISSATEYL	2640 nM
CC(C)C[C@H](NC(=O)[C@H](CO)NC(=O)[C@H](CCCCN)NC(=O)[C@H](CC(C)C)NC(=O)[C@@H](NC(=O)[C@H](CO)NC(=O)[C@@H]1CCCN1C(=O)[C@H](CC(C)C)NC(=O)[C@@H](N)Cc1ccccc1)[C@@H](C)O)C(=O)O	21 nM
IIEFMTYGNL	9700 nM
FELLPIPPL	553 nM
LATEKSRWS	61000 nM
CC[C@H](C)[C@H](N)C(=O)N[C@H](C(=O)N[C@H](C(=O)N[C@@H](CCC(=O)O)C(=O)N[C@@H](Cc1ccccc1)C(=O)N[C@@H](CCSC)C(=O)N[C@H](C(=O)N[C@@H](Cc1ccc(O)cc1)C(=O)NCC(=O)N[C@@H](CC(N)=O)C(=O)O)[C@@H](C)O)[C@@H](C)CC)[C@@H](C)CC	1550 nM
FVMSDTTYKI	62.4 nM

Same assay, conditions: allele B08.01; read-out: Observed Affinity (IC50; (nM))

Compound	IC50
CC(C)C[C@H](NC(=O)[C@H](CO)NC(=O)[C@H](CCCCN)NC(=O)[C@H](CC(C)C)NC(=O)[C@@H](NC(=O)[C@H](CO)NC(=O)[C@@H]1CCCN1C(=O)[C@H](CC(C)C)NC(=O)[C@@H](N)Cc1ccccc1)[C@@H](C)O)C(=O)O	1970 nM
LKKLRSPL	0.6 nM
LATEKSRWS	37000 nM
